Measurements: patent US8012941B2, “Carba-nucleoside analogs for antiviral treatment” (Gilead Sciences, Inc., priority 2008, dated 2011)
Like-named read-outs stand apart in the source and are kept apart here.

Legend:
HCV replicon cells = test: HCV EC50 determination: replicon cells, luciferase readout; format: cell-based; settings: Hepatitis C virus, 72 h
Method: Replicon cells were seeded in 96-well plates at a density of 8×10^3 cells per well in 100 μL of culture medium, excluding Geneticin. Compound was serially diluted in 100% DMSO and then added to the cells at a 1:200 dilution, achieving a final concentration of 0.5% DMSO and a total volume of 200 μL. Plates were incubated at 37° C. for 3 days, after which culture medium was removed and cells were lysed in lysis buffer provided by Promega's luciferase assay system. Following the manufacturer's instruction, 100 μL of luciferase substrate was added to the lysed cells and luciferase activity was measured in a TopCount luminometer.

HCV Δ21 NS5b polymerase = biological target: T1, HCV Δ21 NS5b polymerase (Hepatitis C virus genotype 1b, UniProt Q9WMX2); test: HCV IC50 determination: NS5b polymerase assay; format: biochemical; settings: triphosphates of the listed examples, 35° C., 90 min
T1 construct: 75 nM HCV Δ21 NS5b polymerase
Method: Assay Protocol: NS5b polymerase assay (40 μL) was assembled by adding 28 μL polymerase mixture (final concentration: 50 mM Tris-HCl at pH 7.5, 10 mM KCL, 5 mM MgCl2, 1 mM DTT, 10 mM EDTA, 4 ng/μL of RNA template, and 75 nM HCV Δ21 NS5b polymerase) to assay plates followed by 4 μL of compound dilution. The polymerase and compound were pre-incubated at 35° C. for 10 minute before the addition of 8 μL of nucleotide substrate mixture (33P-α-labeled competing nucleotide at KM and 0.5 mM of the remaining three nucleotides). The assay plates were covered and incubated at 35° C. for 90 min. Reactions were then filtered through 96-well DEAE-81 filter plates via vacuum. The filter plates were then washed under vacuum with multiple volumes of 0.125 M NaHPO4, water, and ethanol to remove unincorporated label. Plates were then counted on TopCount to assess the level of product synthesis over background controls. The IC50 value was determined using Prism fitting program.

[1] = replicon cells, 3 days at 37° C., luciferase activity, read-out: EC50

Compound	EC50 (HCV replicon cells; [1]) [µM]	EC50 (HCV replicon cells) [µM]	other results
CNc1ncnn2c([C@@H]3O[C@H](CO)[C@@H](O)[C@@]3(C)O)cnc12 [Compound 17]	< 10	–	–
C[C@@]1(O)[C@H](O)[C@@H](CO)O[C@H]1c1cnc2c(N)ncnn12 [Compound 1, (2S,3R,4R,5 R)-2-(4-aminoimidazo[1,2-f][1,2,4]triazin-7-yl)-5-(hydroxymethyl)-3-methyl-tetrahydrofuran-3,4-diol]	< 10	–	–
CNc1ncnn2c([C@@H]3O[C@H](COP(=O)(OCCSC(=O)C(C)(C)C)OCCSC(=O)C(C)(C)C)[C@@H](O)[C@@]3(C)O)cnc12 [Compound 18]	–	< 10	–
(2S,3R,4R,5 R)-2-(4-aminoimidazo[1,2-f][1,2,4]triazin-7-yl)-5-(hydroxymethyl)-3-methyl-tetrahydrofuran-3,4-diol [Compound 1]	–	–	IC50 (HCV Δ21 NS5b polymerase): < 10 µM
C[C@@]1(O)[C@H](O)[C@@H](CO)O[C@H]1c1cnc2c(N)nc(N)nn12 [Compound 3]	< 250	–	–
CC(C)OC(=O)[C@H](C)NP(=O)(OC[C@H]1O[C@@H](c2nnc3c(=O)[nH]c(N)nn23)[C@](C)(O)[C@@H]1O)Oc1ccc(Cl)cc1 (stereo partly drawn) [Compound 9]	–	< 250	–
